In patent US4540696A, “1-Piperazinyl 4-phenylquinazoline compounds having antidepressant properties and drugs containing same” (Sanofi S.A., priority 1982, dated 1985):

Legend:
[1] = tested on: ptosis induced by reserpine; assay: Antagonism of ptosis induced by reserpine; format: in vivo, female mouse, CDI (Charles Rivers, France); conditions: reserpine 2 mg/kg intravenous, 1 hour; for ED50: Mus musculus, po, per os, read-out: Antagonism of ptosis induced by reserpine, ED 50
Method: The majority of antidepressants antagonize the ptosis induced by reserpine. This test described by Gouret [Journal de Pharmacologie (Paris), 1973, 4(1), 105-128] was made in the female mouse, CDI (Charles Rivers, France) weighing from 18 to 23 g. The reserpine causes a ptosis 1 hour after its intravenous administration; certain antidepressants, particularly the imipraminics, oppose this ptosis.
The following protocol has been chosen:
The substances to be studied were administered per os to batches of 10 mice. The reserpine was administered simultaneously by the intravenous route at the dose of 2 mg/kg. 1 hour after the administration of reserpine, the number of animals not presenting ptosis is noted.

[2] = tested on: hypothermia induced by reserpine; assay: Antagonism of the hypothermia induced by reserpine; format: in vivo, female mice, CDI (Charles Rivers, France); conditions: reserpine 5 mg/kg i.p., 4 hours
Method: The majority of antidepressants antagonize the hypothermia induced by reserpine. This test was carried out according to the method described by HINO et Coll [Chem Pharm Bull 28 (9), 2618-2622, 1980] on female mice, CDI (Charles Rivers, France) weighing from 18 to 23 g.
(§1) The following protocol was chosen:
The substances to be studied are administered per os to batches of 10 mice, the controls receive the solvent along, simultaneously, the reserpine is administered i.p. at the dose of 5 mg/kg. The temperature of each animal is taken immediately before administration of the products to be tested and 4 hours afterwards. For each animal, the difference in temperature before and after treatment is calculated. The results are expressed in percentage of antagonism of the hypothermia observed in the controls.

[3] = Toxicity; format: in vivo; conditions: per os; for Toxicity: in words (atoxic at the stated dose)
[4] = Pharmacological trials on the central nervous system (tests A to E, overall statement); format: in vivo, female mice, CDI (Charles Rivers, France); conditions: overall statement on Table II
Method: The products according to the invention have been subjected to pharmacological trials with a view to determining their activity on the central nervous system.
The various tests to which the products have been subjected will be indicated hereinbelow. In all cases, the products under study were administered per os.

[5] = Porsolt test (despair reaction, reduction in immobilization time); format: in vivo, female mouse, CDI (Charles Rivers, France); conditions: per os, 1 hour before test
Method: This test was carried out in the female mouse, CDI (Charles Rivers, France) weighing from 18 to 23 g, according to the method described by Porsolt (Archives Internationales de Pharmacologie, 1977, 229, 327-336).
The principle of this test is as follows: when a mouse is placed in a narrow recipient, filled with water, it struggles and then, after 2 to 4 minutes, becomes still and floats on its stomach, its back rounded and its rear paws brought underneath its body; it makes only the few movements to enable it to hold its head out of the water. This is the so-called despair reaction.
Certain psychotherapeutics, particularly antidepressants, lengthen the time during which the mouse struggles.
as §1
The products to be studied were administered orally to batches of 10 mice. 1 hour later, the animals are placed in a narrow receipient (10×10×10 cm), filled with water up to a height of 6 cm, the temperature of the water being 24° C. The animals are left in the water for 6 minutes and the time during which the animal remains immobile between the second and the sixth minute is measured--the shorter the time, the more the substance is active.
The results are expressed as the reduction in the immobilization time with respect to controls.

[6] = tested on: toxicity of yohimbine; assay: Potentialization of the toxicity of yohimbine; format: in vivo, female mice, CDI (Charles Rivers, France); conditions: Mus musculus, po, 18 h, read-out: Potentialization of yohimbine, ED 50
Method: The majority of antidepressants potentialize the toxicity of yohimbine. This test was carried out according to the method described by MALICK (in Antidepressants: Neurochemical Behavioural and Clinical Perspectives, eds S. J. Enna, J. B. Malick, E. Richelson, Raven Press, New York, pages 141-153) on female mice, CDI (Charles Rivers, France).
The substances to be studied are administered per os to batches of 10 mice. The yohimbine is administered i.p. 1 hour later at the dose of 30 mg/kg. Mortality is noted 18 hours later.

[7] = tested on: tremors induced by oxotremorine; assay: Antagonism of the tremors induced by oxotremorine; format: in vivo, female mice, CDI (Charles Rivers, France); conditions: Mus musculus, po, 0.5 h; per os; oxotremorine 1 mg/kg per os at 60 mins., read 30 mins. later; read-out: Antagonism of oxotremorine, ED 50
Method: This test was carried out on female mice, CDI (Charles Rivers, France) weighing from 18 to 23 g.
as §1
The products to be studied are administered at time 0 by the oral route to batches of 10 mice. At time 60 mins., the oxotremorine is administered per os at the dose of 1 mg/kg.

[8] = 10 mg/kg, ** p < 0.01 (all but 40 460, which has *)
[9] = at 10 mg/kg per os, ** p < 0.01

Row | SMILES | Antagonism of ptosis induced by reserpine, percentage ([1]; at 100 mg/kg per os) [%] | Antagonism of hypothermia induced by reserpine, percentage of antagonism ([2]; at 100 mg/kg per os) [%] | Toxicity [3] | Activity on the tests carried out [4] | Porsolt test: reduction in the immobilization time with respect to controls [5, 8] [%] | ED50 [1] [mg/kg] | Antagonism of hypothermia induced by reserpine, percentage of antagonism ([2]; at 20 mg/kg per os, ** p < 0.01) | ED50 [6] [mg/kg] | ED50 [7] [mg/kg] | Toxicity: LD 80 [3] [mg/kg] | Antagonism of hypothermia induced by reserpine, percentage of antagonism [2, 9] | Porsolt test: reduction in the immobilization time with respect to controls ([5]; 5 mg/kg, ** p < 0.01) | Toxicity: LD 40 [3] [mg/kg]
1 | OC1CCN(c2nc(-c3ccccc3Cl)c3cc(Cl)ccc3n2)CC1 [40 331, 6-chloro 4-(2-chlorophenyl) 2-(4-hydroxy 1-piperidinyl) quinazoline, reference compound] | 0 | -20 | Atoxic at 500 mg/kg | virtually inactive | – | – | – | – | – | – | – | – | –
2 | CN1CCN(c2nc(-c3ccccc3Cl)c3cc(Cl)ccc3n2)CC1 [40 460] | – | – | – | – | -11 | 2.1 | +71% | 5.4 | 142 | 1000 | – | – | –
3 | CN1CCN(c2nc(-c3ccccc3F)c3cc(Cl)ccc3n2)CC1 [40 468] | – | – | Atoxic at 1 g/kg | – | -61 | 0.98 | – | 1.65 | 50 | – | +73% | – | –
4 | CN1CCN(c2nc(-c3ccccc3Cl)c3cc([N+](=O)[O-])ccc3n2)CC1 [40 498, 2-(1-methyl 4-piperazinyl) 4-(2-chlorophenyl) 6-nitro quinazoline] | – | – | Atoxic at 1 g/kg | – | -31 | 2.8 | – | 7.8 | 43.5 | – | +68% | – | –
5 | Fc1ccccc1-c1nc(N2CCNCC2)nc2ccc(Cl)cc12 [41 125] | – | – | – | – | – | 0.48 | – | 0.74 | 9.5 | – | +81% | -46 | 1000
6 | CCCN1CCN(c2nc(-c3ccccc3F)c3cc(Cl)ccc3n2)CC1 [41 128] | – | – | Atoxic at 1 g/kg | – | – | 6.2 | – | 1.7 | – | – | +62% | -31 | –
7 | CN(C)CCCN1c2ccccc2CCc2ccccc21 [Imipramine, reference compound] | – | – | – | – | -30 | 2.4 | – | – | 12 | – | +59% | – | –
